Experiments:
Experiment in all cases: DSF thermal shift
Format in all cases: binding
Settings in all cases: 10 µM inhibitor; read-out: Tm shift
YANK1 = target: T1, YANK1 (Homo sapiens, UniProt Q8WU08)
T1 construct: purchased Nanosyn (enzymatic panel); SGC in-house recombinant human kinases (DSF panel); Invitrogen (ALK1-6)
Procedure: (§1) Thermal melting experiments were performed using a Real Time PCR machine Mx3005p (Stratagene) with a protein concentration of 1–2 µM and 10 µM inhibitor as described previously, [25]. […] Recombinant human kinases for DSF screening were prepared by SGC using published methods, [36].

DRAK2 = target: T2, DRAK2 (Homo sapiens, UniProt O94768)
T2 construct: purchased Nanosyn (enzymatic panel); SGC in-house recombinant human kinases (DSF panel); Invitrogen (ALK1-6)
T2 sequence (O94768 1-372): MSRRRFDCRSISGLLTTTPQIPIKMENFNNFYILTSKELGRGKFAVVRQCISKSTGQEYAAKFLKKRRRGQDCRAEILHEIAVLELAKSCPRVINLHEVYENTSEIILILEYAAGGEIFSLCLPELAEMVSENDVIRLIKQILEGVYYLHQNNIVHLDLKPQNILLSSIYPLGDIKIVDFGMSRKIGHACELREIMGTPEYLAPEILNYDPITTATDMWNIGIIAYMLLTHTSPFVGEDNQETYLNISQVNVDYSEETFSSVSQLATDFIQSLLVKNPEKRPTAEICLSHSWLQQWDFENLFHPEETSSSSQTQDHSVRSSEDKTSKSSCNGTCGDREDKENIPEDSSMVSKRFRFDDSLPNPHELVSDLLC
Procedure: as §1

CHEK2 = target: T3, CHEK2 (Homo sapiens, UniProt O96017)
T3 construct: purchased Nanosyn (enzymatic panel); SGC in-house recombinant human kinases (DSF panel); Invitrogen (ALK1-6)
T3 sequence (O96017 whole entry): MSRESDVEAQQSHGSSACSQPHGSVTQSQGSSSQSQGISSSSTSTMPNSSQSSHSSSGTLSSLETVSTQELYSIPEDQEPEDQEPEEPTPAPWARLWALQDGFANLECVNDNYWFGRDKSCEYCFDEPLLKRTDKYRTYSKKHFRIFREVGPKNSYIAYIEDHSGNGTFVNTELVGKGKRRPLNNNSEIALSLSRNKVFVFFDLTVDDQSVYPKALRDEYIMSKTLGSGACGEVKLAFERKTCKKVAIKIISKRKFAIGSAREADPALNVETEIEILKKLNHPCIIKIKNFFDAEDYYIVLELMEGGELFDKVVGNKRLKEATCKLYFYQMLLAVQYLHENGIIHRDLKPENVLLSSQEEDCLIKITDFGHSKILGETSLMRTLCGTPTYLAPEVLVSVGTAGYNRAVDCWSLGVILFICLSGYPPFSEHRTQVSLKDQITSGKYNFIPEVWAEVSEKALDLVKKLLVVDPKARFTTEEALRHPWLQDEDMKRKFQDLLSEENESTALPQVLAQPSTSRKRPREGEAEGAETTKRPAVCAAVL
Procedure: as §1

MPSK1 = target: T4, MPSK1 (Homo sapiens, UniProt O75716)
T4 construct: purchased Nanosyn (enzymatic panel); SGC in-house recombinant human kinases (DSF panel); Invitrogen (ALK1-6)
T4 sequence (O75716 whole entry): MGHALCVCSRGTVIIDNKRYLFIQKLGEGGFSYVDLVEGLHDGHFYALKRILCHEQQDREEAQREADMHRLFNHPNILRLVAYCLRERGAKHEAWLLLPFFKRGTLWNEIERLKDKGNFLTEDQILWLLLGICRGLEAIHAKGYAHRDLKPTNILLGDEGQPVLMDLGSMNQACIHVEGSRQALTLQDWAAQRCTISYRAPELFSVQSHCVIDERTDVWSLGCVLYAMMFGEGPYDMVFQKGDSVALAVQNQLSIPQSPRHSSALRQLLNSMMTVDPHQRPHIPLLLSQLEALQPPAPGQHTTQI
Procedure: as §1

CK1γ1 = target: T5, CK1γ1 (Homo sapiens, UniProt Q9HCP0)
T5 construct: purchased Nanosyn (enzymatic panel); SGC in-house recombinant human kinases (DSF panel); Invitrogen (ALK1-6)
T5 sequence (Q9HCP0 whole entry): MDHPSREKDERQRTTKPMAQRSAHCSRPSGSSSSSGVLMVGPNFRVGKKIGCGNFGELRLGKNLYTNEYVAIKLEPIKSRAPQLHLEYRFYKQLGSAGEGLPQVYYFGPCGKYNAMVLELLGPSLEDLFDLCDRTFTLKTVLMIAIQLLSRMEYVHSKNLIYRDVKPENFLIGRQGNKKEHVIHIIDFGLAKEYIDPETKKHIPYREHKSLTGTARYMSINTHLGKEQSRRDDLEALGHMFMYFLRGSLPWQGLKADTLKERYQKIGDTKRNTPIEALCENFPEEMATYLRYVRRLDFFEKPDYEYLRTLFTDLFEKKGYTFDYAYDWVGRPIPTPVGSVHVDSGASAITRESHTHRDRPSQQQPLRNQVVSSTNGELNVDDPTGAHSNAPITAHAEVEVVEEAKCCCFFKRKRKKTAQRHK
Procedure: as §1

p38δ = target: T6, p38δ (Homo sapiens, UniProt O15264)
T6 construct: purchased Nanosyn (enzymatic panel); SGC in-house recombinant human kinases (DSF panel); Invitrogen (ALK1-6)
T6 sequence (O15264 1-365): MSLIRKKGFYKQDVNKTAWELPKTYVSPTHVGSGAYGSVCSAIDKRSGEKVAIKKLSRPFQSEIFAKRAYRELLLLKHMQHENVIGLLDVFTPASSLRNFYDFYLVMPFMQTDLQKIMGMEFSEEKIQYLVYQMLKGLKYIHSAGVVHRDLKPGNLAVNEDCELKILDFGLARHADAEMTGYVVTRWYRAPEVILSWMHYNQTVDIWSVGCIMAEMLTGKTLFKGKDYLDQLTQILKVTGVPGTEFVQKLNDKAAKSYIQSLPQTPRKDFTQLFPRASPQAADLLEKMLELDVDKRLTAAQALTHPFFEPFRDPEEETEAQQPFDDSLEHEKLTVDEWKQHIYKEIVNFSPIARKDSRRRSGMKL
Procedure: as §1

PIM3 = target: T7, PIM3 (Homo sapiens, UniProt Q86V86)
T7 construct: purchased Nanosyn (enzymatic panel); SGC in-house recombinant human kinases (DSF panel); Invitrogen (ALK1-6)
Procedure: as §1

MRCKβ = target: T8, MRCKβ (Homo sapiens, UniProt Q9Y5S2)
T8 construct: purchased Nanosyn (enzymatic panel); SGC in-house recombinant human kinases (DSF panel); Invitrogen (ALK1-6)
Procedure: as §1

ERK1 = target: T9, ERK1 (Homo sapiens, UniProt P27361)
T9 construct: purchased Nanosyn (enzymatic panel); SGC in-house recombinant human kinases (DSF panel); Invitrogen (ALK1-6)
T9 sequence (P27361 whole entry): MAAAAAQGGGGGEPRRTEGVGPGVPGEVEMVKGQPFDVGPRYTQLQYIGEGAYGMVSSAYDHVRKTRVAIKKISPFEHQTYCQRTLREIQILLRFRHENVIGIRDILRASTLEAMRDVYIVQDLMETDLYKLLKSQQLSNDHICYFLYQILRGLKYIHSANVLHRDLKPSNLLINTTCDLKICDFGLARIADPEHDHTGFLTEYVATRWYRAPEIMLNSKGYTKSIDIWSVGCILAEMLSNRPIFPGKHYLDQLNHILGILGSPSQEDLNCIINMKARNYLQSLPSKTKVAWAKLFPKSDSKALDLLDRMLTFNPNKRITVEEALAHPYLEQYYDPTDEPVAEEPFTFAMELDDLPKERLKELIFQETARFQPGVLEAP
Procedure: as §1

VRK2 = target: T10, VRK2 (Homo sapiens, UniProt Q86Y07)
T10 construct: purchased Nanosyn (enzymatic panel); SGC in-house recombinant human kinases (DSF panel); Invitrogen (ALK1-6)
T10 sequence (Q86Y07 whole entry): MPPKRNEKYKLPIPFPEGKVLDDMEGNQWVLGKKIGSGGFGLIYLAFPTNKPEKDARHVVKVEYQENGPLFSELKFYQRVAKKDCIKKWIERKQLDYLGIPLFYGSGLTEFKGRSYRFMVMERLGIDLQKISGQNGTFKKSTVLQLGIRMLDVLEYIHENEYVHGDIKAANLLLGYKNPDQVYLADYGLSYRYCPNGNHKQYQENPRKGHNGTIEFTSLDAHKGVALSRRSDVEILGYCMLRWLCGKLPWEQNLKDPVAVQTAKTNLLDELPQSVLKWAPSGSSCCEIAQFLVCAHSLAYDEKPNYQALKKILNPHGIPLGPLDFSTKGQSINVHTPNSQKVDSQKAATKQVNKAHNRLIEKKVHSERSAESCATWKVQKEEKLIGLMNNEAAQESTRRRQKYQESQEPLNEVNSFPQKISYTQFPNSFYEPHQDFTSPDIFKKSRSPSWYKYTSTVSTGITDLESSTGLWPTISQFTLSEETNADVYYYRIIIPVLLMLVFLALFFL
Procedure: as §1

AMPKα2 = target: T11, AMPKα2 (Homo sapiens, UniProt P54646)
T11 construct: purchased Nanosyn (enzymatic panel); SGC in-house recombinant human kinases (DSF panel); Invitrogen (ALK1-6)
T11 sequence (P54646 whole entry): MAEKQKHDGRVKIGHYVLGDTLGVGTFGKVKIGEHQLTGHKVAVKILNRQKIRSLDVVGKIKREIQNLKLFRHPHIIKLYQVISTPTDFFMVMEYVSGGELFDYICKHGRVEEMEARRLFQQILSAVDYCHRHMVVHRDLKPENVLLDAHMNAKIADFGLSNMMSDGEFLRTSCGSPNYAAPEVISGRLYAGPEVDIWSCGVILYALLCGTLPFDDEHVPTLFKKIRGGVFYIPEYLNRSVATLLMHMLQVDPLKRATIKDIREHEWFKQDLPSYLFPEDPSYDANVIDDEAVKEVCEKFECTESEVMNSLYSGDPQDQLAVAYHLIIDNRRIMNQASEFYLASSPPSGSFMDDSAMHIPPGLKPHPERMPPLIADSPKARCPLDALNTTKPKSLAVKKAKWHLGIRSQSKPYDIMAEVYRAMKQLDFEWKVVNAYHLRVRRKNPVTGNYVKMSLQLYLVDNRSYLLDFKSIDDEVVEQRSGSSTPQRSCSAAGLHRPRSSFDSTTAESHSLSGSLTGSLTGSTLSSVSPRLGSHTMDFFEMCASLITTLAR
Procedure: as §1

NEK11 = target: T12, NEK11 (Homo sapiens, UniProt Q8NG66)
T12 construct: purchased Nanosyn (enzymatic panel); SGC in-house recombinant human kinases (DSF panel); Invitrogen (ALK1-6)
T12 sequence (Q8NG66 1-645): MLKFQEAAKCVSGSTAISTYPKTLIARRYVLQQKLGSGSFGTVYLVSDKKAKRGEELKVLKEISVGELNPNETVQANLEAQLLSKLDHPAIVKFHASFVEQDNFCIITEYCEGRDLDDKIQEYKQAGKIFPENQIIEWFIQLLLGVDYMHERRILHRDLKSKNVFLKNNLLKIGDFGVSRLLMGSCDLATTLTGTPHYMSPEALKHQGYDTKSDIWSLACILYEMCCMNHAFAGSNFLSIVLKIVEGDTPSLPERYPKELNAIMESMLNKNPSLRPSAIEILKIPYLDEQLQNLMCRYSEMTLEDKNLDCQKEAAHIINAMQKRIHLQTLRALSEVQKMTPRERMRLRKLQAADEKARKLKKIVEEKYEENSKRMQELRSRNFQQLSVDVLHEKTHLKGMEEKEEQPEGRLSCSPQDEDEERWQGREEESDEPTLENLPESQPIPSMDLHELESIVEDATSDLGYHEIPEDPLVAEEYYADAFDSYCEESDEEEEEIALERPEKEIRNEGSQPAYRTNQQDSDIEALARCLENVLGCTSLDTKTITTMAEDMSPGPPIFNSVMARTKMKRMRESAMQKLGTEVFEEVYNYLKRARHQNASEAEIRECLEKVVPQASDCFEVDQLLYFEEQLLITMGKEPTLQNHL
Procedure: as §1

RSK1 = target: T13, RSK1 (Homo sapiens, UniProt Q15418)
T13 construct: purchased Nanosyn (enzymatic panel); SGC in-house recombinant human kinases (DSF panel); Invitrogen (ALK1-6)
T13 sequence (Q15418 whole entry): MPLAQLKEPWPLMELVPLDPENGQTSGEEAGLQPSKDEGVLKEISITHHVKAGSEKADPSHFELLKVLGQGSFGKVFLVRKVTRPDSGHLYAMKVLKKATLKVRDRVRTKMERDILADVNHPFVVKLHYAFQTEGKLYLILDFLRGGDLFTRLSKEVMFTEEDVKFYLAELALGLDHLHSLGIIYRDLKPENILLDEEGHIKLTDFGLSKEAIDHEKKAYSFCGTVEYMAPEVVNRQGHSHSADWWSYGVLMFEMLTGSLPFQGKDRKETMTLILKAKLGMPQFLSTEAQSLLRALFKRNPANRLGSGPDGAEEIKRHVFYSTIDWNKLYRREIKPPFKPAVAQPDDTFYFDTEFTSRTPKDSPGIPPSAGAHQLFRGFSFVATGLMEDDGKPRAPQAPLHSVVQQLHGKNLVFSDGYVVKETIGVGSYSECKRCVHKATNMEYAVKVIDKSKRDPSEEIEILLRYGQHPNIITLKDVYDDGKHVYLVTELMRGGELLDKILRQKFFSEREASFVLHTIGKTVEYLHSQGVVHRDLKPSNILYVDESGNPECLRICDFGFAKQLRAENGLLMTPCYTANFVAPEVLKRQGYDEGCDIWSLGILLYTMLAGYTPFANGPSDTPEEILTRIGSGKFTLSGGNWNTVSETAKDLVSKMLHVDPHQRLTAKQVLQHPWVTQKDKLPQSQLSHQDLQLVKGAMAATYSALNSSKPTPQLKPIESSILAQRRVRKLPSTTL
Procedure: as §1

T1 sequence (Q8WU08 whole entry): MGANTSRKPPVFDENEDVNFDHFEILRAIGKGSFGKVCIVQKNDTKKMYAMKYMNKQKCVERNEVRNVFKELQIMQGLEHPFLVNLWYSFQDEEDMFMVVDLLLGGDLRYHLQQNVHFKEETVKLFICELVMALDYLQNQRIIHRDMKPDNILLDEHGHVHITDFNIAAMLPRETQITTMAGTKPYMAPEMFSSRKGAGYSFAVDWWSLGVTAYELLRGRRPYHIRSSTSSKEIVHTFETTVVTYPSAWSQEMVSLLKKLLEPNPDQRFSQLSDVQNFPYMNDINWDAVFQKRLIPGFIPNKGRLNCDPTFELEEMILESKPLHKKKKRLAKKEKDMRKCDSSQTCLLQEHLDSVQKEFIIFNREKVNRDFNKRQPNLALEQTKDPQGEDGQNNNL

ΔTm at 10 µM (YANK1) [°C]	ΔTm at 10 µM (DRAK2) [°C]	ΔTm at 10 µM (CHEK2) [°C]	ΔTm at 10 µM (MPSK1) [°C]	ΔTm at 10 µM (CK1γ1) [°C]	ΔTm at 10 µM (p38δ) [°C]	ΔTm at 10 µM (PIM3) [°C]	ΔTm at 10 µM (MRCKβ) [°C]	ΔTm at 10 µM (ERK1) [°C]	ΔTm at 10 µM (VRK2) [°C]	ΔTm at 10 µM (AMPKα2) [°C]	ΔTm at 10 µM (NEK11) [°C]	ΔTm at 10 µM (RSK1) [°C]	Structure (SMILES)
0.5	10	1.7	5.3	0.4	0	0.6	0	0	0.2	7.1	2	2.8	c1cc(-c2cnn3cc(-c4ccc(OCCN5CCCCC5)cc4)cnc23)ccn1 [Dorsomorphin]
0.2	0.6	0	0.3	0.7	-0.2	-0.2	0.4	0.2	0.6	1.2	0.3	1.1	COc1cc(-c2cc(-c3cccc(O)c3)cnc2N)cc(OC)c1OC [K02288, 3-[6-amino-5-(3,4,5-trimethoxy-phenyl)-pyridin-3-yl]-phenol]

Structure (SMILES)	ΔTm at 10 µM (YANK1) [°C]	ΔTm at 10 µM (DRAK2) [°C]	ΔTm at 10 µM (CHEK2) [°C]	ΔTm at 10 µM (MPSK1) [°C]	ΔTm at 10 µM (CK1γ1) [°C]	ΔTm at 10 µM (p38δ) [°C]	ΔTm at 10 µM (PIM3) [°C]	ΔTm at 10 µM (MRCKβ) [°C]	ΔTm at 10 µM (ERK1) [°C]	ΔTm at 10 µM (VRK2) [°C]	ΔTm at 10 µM (AMPKα2) [°C]	ΔTm at 10 µM (NEK11) [°C]	ΔTm at 10 µM (RSK1) [°C]
c1ccc2c(-c3cnn4cc(-c5ccc(N6CCNCC6)cc5)cnc34)ccnc2c1 [LDN-193189]	1.2	2.1	1.4	5.3	0.3	-0.4	-0.2	0.6	0.2	-0.2	8.3	-0.3	3.3

Reference: article PMC3639963, “A New Class of Small Molecule Inhibitor of BMP Signaling” (PLoS ONE, 2013)
